Measured values published in patent US20250223328A1, “TRUNCATED DOMINANT NEGATIVE CEBPB AND CEBPD PROTEINS AND METHODS OF USE FOR DECREASING VIABILITY OF NEOPLASTIC CELLS” (The Trustees of Columbia University in the City of New York, priority 2022, published 2025).

Assays:
[1] = tested on: HCT116 colon cancer cells; experiment: Apoptotic nuclei in HCT116 cells transfected with DNA vectors expressing the constructs; assay type: cell-based
From the text: FIG. 1 is a graph reporting exemplary data showing 3-box dominant negative forms of CEBPD promote apoptotic death of cancer cells. Replicate cultures of HCT116 colon cancer cells were transfected with DNA vectors expressing D-mut (a control peptide containing only the leucine zipper domain of CEBPD with all leucines in position 5 (also referred to as position “d”) of the heptad repeats mutated to glycine to suppress leucine zipper binding activity), D-1234, D-123, and D-234. Three days later, transfected cells were scored for proportion with apoptotic nuclei. Data represent means±SEM (n=4). P values vs D-mut (T-test): D-1234, p=0.0005; D-123, p=0.0014; D-234, p=0.0003.
FIG. 2 is a graph reporting exemplary data showing 2-box dominant negative forms of CEBPD promote apoptotic death of cancer cells. Replicate cultures of HCT116 cells were transfected with DNA vectors expressing D-mut, D-1234, D-12, D-23, or D-34. Three days later, transfected cells were scored for proportion with apoptotic nuclei. Data represent means±SEM (n=12 from 3 independent experiments). P values vs D-mut: D-1234, p<0.0001; D-12, p=0.056; D-23, p<0.001; D-34, p=0.0008.
FIG. 12 is a graph reporting exemplary data showing D-123EWE and D-123EKE peptides promote apoptotic death of cancer cells. Replicate cultures of HCT116 cells were transfected with an empty DNA vector or DNA vectors expressing D-123, D-123EWE, or D-123EKE. Two days later, transfected cells were scored for proportion with apoptotic nuclei. Data are pooled from two independent experiments, each with n=4. Data represent means±SEM.

[2] = tested on: T98G, MDA-MB-231, A375, Shep21N, and CHLA255 cell lines; experiment: Cell numbers after 6 days of peptide treatment in a panel of cancer cell lines; assay type: cell-based; conditions: medium with 2% fetal bovine serum, five cell lines
Procedure: FIGS. 3A-3E are graphs reporting exemplary data showing truncated dominant negative forms of CEBPD reduce cancer cell numbers. Replicate cultures of T98G (FIG. 3A), MDA-MB-231 (FIG. 3B), A375 (FIG. 3C), Shep21N (FIG. 3D), and CHLA255 (FIG. 3E) cell lines were treated with CP-D-123 at the indicated concentrations for 6 days in culture medium containing 2% fetal bovine serum and then assessed for cell numbers. Values are given as means±SEM (N=3 replicate cultures).
FIGS. 4A-4E are graphs reporting exemplary data showing truncated dominant negative forms of CEBPD reduce cancer cell numbers. Replicate cultures of T98G (FIG. 4A), MDA-MB-231 (FIG. 4B), A375 (FIG. 4C), Shep21N (FIG. 4D), and CHLA255 (FIG. 4E) cell lines were treated with CP-D-123, CP-D-234, and Bpep (at 20 μM in T98G, MDA-MB-231, A375 only) at the indicated concentrations for 6 days in culture medium containing 2% fetal bovine serum and then assessed for cell numbers. Values are given as means±SEM (N=3 replicate cultures).

[3] = HCT116, two days after transfection, compared with D-123
[4] = HCT116, three days after transfection, control D-mut

## ELVELEA ENEKLHQ EVEQLER (ELVELEAENEKLHQEVEQLER; SEQ ID NO: 90 - D-123EWE) [Construct D-123EWE]
[1]; [3]
  Proportion of transfected cells with apoptotic nuclei: activity comparable or greater to that of the D-123 peptide

## ELVELEA KNEKLKQ EVEQLER (ELVELEAKNEKLKQEVEQLER; SEQ ID NO: 100 - D-123EKE) [Construct D-123EKE]
[1]; [3]
  Proportion of transfected cells with apoptotic nuclei: activity comparable or greater to that of the D-123 peptide

## ENEKLHQRVEQLTR (SEQ ID NO: 56 - D-23) [Construct D-23]
[1]; [4]
  Proportion of transfected cells with apoptotic nuclei: active in causing apoptosis

## ENEKLHQRVEQLTRDLAGLRQ (SEQ ID NO: 52 - D-234) [Construct D-234]
[1]; [4]
  Proportion of transfected cells with apoptotic nuclei: comparable rates to the full length D-1234 construct

## KLVELSAENEKLHQ (SEQ ID NO: 54 - D-12) [Construct D-12]
[1]; [4]
  Proportion of transfected cells with apoptotic nuclei: active in causing apoptosis

## KLVELSAENEKLHQRVEQLTR (SEQ ID NO: 50 - D-123) [Construct D-123]
[1]; [4]
  Proportion of transfected cells with apoptotic nuclei: comparable rates to the full length D-1234 construct

## RQIKIWFQNRRMKWKKENEKLHQRVEQLTRDLAGLRQ (SEQ ID NO: 53 - CP-D-234)
[2]
  Reduction of cell numbers: lower and less consistent in activity than CP-D-123

## RVEQLTRDLAGLRQ (SEQ ID NO: 58 - D-34) [Construct D-34]
[1]; [4]
  Proportion of transfected cells with apoptotic nuclei: active in causing apoptosis
